Values quoted from earlier work in PMC9097188, “Design, Synthesis, and Molecular Modeling Studies of a Novel Benzimidazole as an Aromatase Inhibitor” (ACS Omega, 2022).

Target: aromatase
Details: 3D-QSAR data set, IC50 converted to pIC50; SI reference list; cited from earlier work

Structure (SMILES) | Experimental pIC50
Cc1ccc2nc(-c3ccc(-c4nnc5n4N=C(c4ccc(C#N)cc4)CS5)cc3)[nH]c2c1 [compound 81] | 5.871
O=S(=O)(NCCc1c(C(c2ccc(O)cc2)c2[nH]c3ccccc3c2CCNS(=O)(=O)c2ccc(C(F)(F)F)cc2)[nH]c2ccccc12)c1ccc(C(F)(F)F)cc1 [compound 48] | 5.886
O=S(=O)(NCCc1c(C(c2ccc(F)cc2)c2[nH]c3ccccc3c2CCNS(=O)(=O)c2ccc(Br)cc2)[nH]c2ccccc12)c1ccc(Br)cc1 [compound 40] | 5.119
Cc1ccc2cc(Cn3ccnc3)n(-c3ccc(C#N)cc3)c2c1 [compound 19] | 7.568
Fc1cccc(-n2cc(Cn3ccnc3)c3ccccc32)c1 [compound 115] | 5.513
Cc1ccc(S(=O)(=O)NCCc2c(C(c3ccccc3)c3[nH]c4ccccc4c3CCNS(=O)(=O)c3ccc(C)cc3)[nH]c3ccccc23)cc1 [compound 29] | 4.924
COc1ccc(-n2c(Cn3ccnc3)cc3ccc(C)cc32)cc1 [compound 17] | 6.858
N#Cc1ccc(C2=Nn3c(nnc3-c3ccc(-c4nc5ccc(Cl)cc5[nH]4)cc3)SC2)cc1 [compound 103] | 5.806
CCn1cc([C@H](c2ccccc2Cl)n2ccnc2)c2cc(Br)ccc21 [121R] | 6.009
O=C1Nc2ccccc2C1(c1[nH]c2ccccc2c1CCNS(=O)(=O)c1ccc(Cl)cc1)c1[nH]c2ccccc2c1CCNS(=O)(=O)c1ccc(Cl)cc1 [compound 60] | 5.081
Cc1ccc2[nH]c(-c3ccc(-c4nnc5n4N=C(c4ccc(Cl)cc4)CS5)cc3)nc2c1 [compound 79] | 5.927
O=[N+]([O-])c1ccc(S(=O)(=O)NCCc2c(C(c3ccccc3)c3[nH]c4ccccc4c3CCNS(=O)(=O)c3ccc([N+](=O)[O-])cc3)[nH]c3ccccc23)cc1 [compound 30] | 4.951
OCc1cn(-c2ccccc2F)c2ccccc12 [compound 109] | 6.907
O=C1Nc2ccccc2C1(c1[nH]c2ccccc2c1CCNS(=O)(=O)c1ccccc1[N+](=O)[O-])c1[nH]c2ccccc2c1CCNS(=O)(=O)c1ccccc1[N+](=O)[O-] [compound 62] | 5.009
O=S(=O)(NCCc1c(C(c2ccc(C(F)(F)F)cc2)c2[nH]c3ccccc3c2CCNS(=O)(=O)c2ccc(C(F)(F)F)cc2)[nH]c2ccccc12)c1ccc(C(F)(F)F)cc1 [compound 45] | 5.638
Cc1ccc2nc(-c3ccc(-c4nnc5n4N=C(c4ccc(F)cc4)CS5)cc3)[nH]c2c1 [compound 80] | 5.906
CCn1cc([C@H](c2ccc(F)cc2)n2ccnc2)c2cc(C#N)ccc21 [76S] | 6.495
CC(C)n1cc([C@@H](c2ccc(F)cc2)n2ccnc2)c2cc(Br)ccc21 [78R] | 6.495
O=S(=O)(NCCc1c(C(c2ccc3c(c2)Cc2ccccc2-3)c2[nH]c3ccccc3c2CCNS(=O)(=O)c2ccc(Cl)cc2)[nH]c2ccccc12)c1ccc(Cl)cc1 [compound 57] | 5.056
O=S(=O)(NCCc1c(C(c2ccc(Br)cc2)c2[nH]c3ccccc3c2CCNS(=O)(=O)c2ccc(Cl)cc2)[nH]c2ccccc12)c1ccc(Cl)cc1 [compound 38] | 5.569
O=[N+]([O-])c1ccccc1S(=O)(=O)NCCc1c(C(c2ccccc2O)c2[nH]c3ccccc3c2CCNS(=O)(=O)c2ccccc2[N+](=O)[O-])[nH]c2ccccc12 [compound 55] | 5.337

Structure (SMILES) | Experimental pIC50
COc1ccc2cc(Cn3ccnc3)n(-c3ccc(F)cc3)c2c1 [compound 21] | 7.310
CCn1cc([C@H](c2ccc(Cl)cc2Cl)n2cccc2)c2cc(Br)ccc21 [118R] | 6.478
COc1ccc(S(=O)(=O)NCCc2c(C(c3ccccc3)c3[nH]c4ccccc4c3CCNS(=O)(=O)c3ccc(OC)cc3)[nH]c3ccccc23)cc1 [compound 31] | 5.456
O[C@@](c1ccc(Br)cc1)(c1cccnc1)c1cc2ccccc2o1 [85S] | 4.600
Cc1[nH]c2ccccc2c1C=NNc1cccc(F)c1 [compound 104] | 4.939
CCn1cc([C@@H](c2ccccc2Cl)n2ccnc2)c2cc(Br)ccc21 [121S] | 6.009
COc1ccc(S(=O)(=O)NCCc2c(C3(c4[nH]c5ccccc5c4CCNS(=O)(=O)c4ccc(OC)cc4)C(=O)Nc4ccccc43)[nH]c3ccccc23)cc1 [compound 59] | 5.553
O=S(=O)(NCCc1c(C(c2ccccc2O)c2[nH]c3ccccc3c2CCNS(=O)(=O)c2ccc(Cl)cc2)[nH]c2ccccc12)c1ccc(Cl)cc1 [compound 53] | 5.377
COc1ccc(S(=O)(=O)NCCc2c(C(c3cc(OC)c(O)c(OC)c3)c3[nH]c4ccccc4c3CCNS(=O)(=O)c3ccc(OC)cc3)[nH]c3ccccc23)cc1 [compound 56] | 5.602
CCn1cc([C@@H](c2ccc(F)cc2)n2cncn2)c2cc(Br)ccc21 [123R] | 5.149
CC(C)n1cc([C@H](c2ccc(F)cc2)n2ccnc2)c2cc(Br)ccc21 [78S] | 6.495
Clc1cccc([C@H](c2ccc3[nH]ccc3c2)n2ccnc2)c1 [3S] | 6.527
Cc1ccc(S(=O)(=O)NCCc2c(C(c3ccccc3O)c3[nH]c4ccccc4c3CCNS(=O)(=O)c3ccc(C)cc3)[nH]c3ccccc23)cc1 [compound 50] | 5.387
CCn1cc([C@H](c2ccc(F)cc2)n2cncn2)c2cc(Br)ccc21 [119S] | 6.016
O=S(=O)(NCCc1c(C(c2ccc(C(F)(F)F)cc2)c2[nH]c3ccccc3c2CCNS(=O)(=O)c2ccc(Br)cc2)[nH]c2ccccc12)c1ccc(Br)cc1 [compound 43] | 5.420
CCn1c([C@H](c2ccc(F)cc2)n2ccnc2)c(C)c2ccccc21 [73S] | 6.921
Clc1cccc([C@@H](c2ccc3[nH]ccc3c2)n2ccnc2)c1 [3R] | 6.527
O[C@@](c1cccnc1)(c1cc2ccccc2o1)c1ccc(Cl)cc1Cl [87R] | 5.658
O=S(=O)(NCCc1c(C(c2ccc(Br)cc2)c2[nH]c3ccccc3c2CCNS(=O)(=O)c2ccc(C(F)(F)F)cc2)[nH]c2ccccc12)c1ccc(C(F)(F)F)cc1 [compound 39] | 5.469
CCn1cc([C@@H](c2ccc(Cl)cc2Cl)n2cccc2)c2cc(Br)ccc21 [118S] | 6.478
O=C1Nc2ccccc2C1(c1[nH]c2ccccc2c1CCNS(=O)(=O)c1cccc([N+](=O)[O-])c1)c1[nH]c2ccccc2c1CCNS(=O)(=O)c1cccc([N+](=O)[O-])c1 [compound 61] | 4.924

Structure (SMILES) | Experimental pIC50
Cc1[nH]c2ccccc2c1C=NNc1ccc(Cl)cc1 [compound 107] | 5.062
N#Cc1ccc([C@H](c2ccc3[nH]ccc3c2)n2ccnc2)cc1 [5R] | 7.714
O=S(=O)(NCCc1c(C(c2ccc(O)cc2)c2[nH]c3ccccc3c2CCNS(=O)(=O)c2ccc(Cl)cc2)[nH]c2ccccc12)c1ccc(Cl)cc1 [compound 47] | 5.854
CCn1c([C@@H](c2ccc(F)cc2)n2ccnc2)c(C)c2ccccc21 [73R] | 6.921
O=S(=O)(NCCc1c(C(c2ccc(F)cc2)c2[nH]c3ccccc3c2CCNS(=O)(=O)c2ccc(Cl)cc2)[nH]c2ccccc12)c1ccc(Cl)cc1 [compound 41] | 5.268
O=[N+]([O-])c1ccc(S(=O)(=O)NCCc2c(C(c3ccc(O)cc3)c3[nH]c4ccccc4c3CCNS(=O)(=O)c3ccc([N+](=O)[O-])cc3)[nH]c3ccccc23)cc1 [compound 49] | 5.638
N#Cc1ccc(C(c2ccc3[nH]ccc3c2)n2ccnc2)cc1 (centres unmarked) [5S] | 7.714
O[C@](c1cccnc1)(c1cc2ccccc2o1)c1ccc(Cl)cc1Cl [87S] | 5.658
CCn1cc([C@H](c2ccc(Cl)cc2Cl)n2cncn2)c2cc(Br)ccc21 [120R] | 6.206
CCn1c([C@H](c2cccc(Cl)c2)n2ccnc2)c(C)c2cc(Br)ccc21 [69S] | 6.027
COc1ccc(-n2c(Cn3ccnc3)cc3ccccc32)cc1 [compound 12] | 7.111
Cc1[nH]c2ccccc2c1C=NNc1cccc(Cl)c1 [compound 106] | 4.718
CCn1cc(C(c2ccc(F)cc2)n2cncn2)c2cc(Br)ccc21 (centres unmarked) [123S] | 5.149
COc1ccc(S(=O)(=O)NCCc2c(C(c3ccc(O)cc3)c3[nH]c4ccccc4c3CCNS(=O)(=O)c3ccc(OC)cc3)[nH]c3ccccc23)cc1 [compound 46] | 6.155
COc1ccc(-n2c(Cn3ccnc3)cc3ccc(Cl)cc32)cc1 [compound 26] | 6.692
O=[N+]([O-])c1ccc(S(=O)(=O)NCCc2c(C(c3ccccc3O)c3[nH]c4ccccc4c3CCNS(=O)(=O)c3ccc([N+](=O)[O-])cc3)[nH]c3ccccc23)cc1 [compound 51] | 5.553
O=S(=O)(Cc1ccccc1)NCCc1c[nH]c2ccccc12 [compound 64] | 6.125
CCn1c([C@@H](c2cccc(Cl)c2)n2ccnc2)c(C)c2cc(Br)ccc21 [69R] | 6.027
Cc1[nH]c2ccccc2c1C=NNc1cc(F)cc(F)c1 [compound 105] | 4.886
Fc1ccccc1-n1cc(Cn2ccnc2)c2ccccc21 [compound 114] | 6.377
